Experimental data as given in patent US20260374773A1, “MULTI-CYCLIC IRAK AND FLT3 INHIBITING COMPOUNDS AND USES THEREOF” (CHILDREN'S HOSPITAL MEDICAL CENTER, priority 2022, published 2026).

Experiments:
MOLM14 D835Y cells = test: MOLM14 D835Y cell viability (Cell Titer Glo); assay type: cell-based; conditions: Homo sapiens
Method in brief: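 FLT3-D835Y-mutant MOLM14 cells, 1000/well in RPMI-1640 with 20% FBS, treated with 22-point 1:2 dilutions starting at 10 μM. After 48 h incubation, viability was read by CellTiter-Glo luminescence; bortezomib (2.3 μM final) served as cytotoxic control.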

IRAK1 = IRAK1 (Homo sapiens, UniProt P51617); test: RBC HotSpot kinase inhibition assay, IRAK1; assay type: biochemical; conditions: isolated kinase, 33P-ATP, 2 h
Chain of IRAK1 (P51617 whole entry, the tested form may be a part): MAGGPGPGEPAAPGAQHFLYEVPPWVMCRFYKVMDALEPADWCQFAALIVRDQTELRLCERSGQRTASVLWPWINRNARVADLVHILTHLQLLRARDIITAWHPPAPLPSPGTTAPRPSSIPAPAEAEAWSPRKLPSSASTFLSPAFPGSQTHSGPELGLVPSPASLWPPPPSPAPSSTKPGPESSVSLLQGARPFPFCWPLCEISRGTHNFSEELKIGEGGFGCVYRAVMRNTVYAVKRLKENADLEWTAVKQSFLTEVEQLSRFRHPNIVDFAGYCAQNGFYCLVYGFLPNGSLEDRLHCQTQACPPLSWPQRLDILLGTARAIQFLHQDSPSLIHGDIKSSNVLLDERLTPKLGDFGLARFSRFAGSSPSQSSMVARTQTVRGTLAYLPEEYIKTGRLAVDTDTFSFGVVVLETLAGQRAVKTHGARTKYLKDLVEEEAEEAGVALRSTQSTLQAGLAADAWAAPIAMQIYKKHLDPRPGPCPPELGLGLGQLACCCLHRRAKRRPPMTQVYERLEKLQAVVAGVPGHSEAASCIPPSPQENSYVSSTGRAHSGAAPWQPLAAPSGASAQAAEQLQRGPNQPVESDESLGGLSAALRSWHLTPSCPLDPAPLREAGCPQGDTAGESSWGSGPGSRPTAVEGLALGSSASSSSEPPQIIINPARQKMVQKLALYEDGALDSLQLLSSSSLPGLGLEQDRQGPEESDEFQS
Method in brief: (§1)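 Isolated kinases, possibly truncated or lacking regulatory receptor domains, in 20 mM Hepes pH 7.5, 10 mM MgCl2, 1 mM EGTA, 0.01% Brij35, 2 mM DTT, 1% DMSO with substrate and cofactors. Compound preincubated 20 min, then ^33P-ATP added; 2 h at room temperature, read by P81 filter binding.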

IRAK4 = target: T1, IRAK4 (Homo sapiens, UniProt Q9NWZ3); test: RBC HotSpot kinase inhibition assay, IRAK4; assay type: biochemical; conditions: isolated kinase, 33P-ATP, 2 h
T1 sequence (Q9NWZ3 1-460): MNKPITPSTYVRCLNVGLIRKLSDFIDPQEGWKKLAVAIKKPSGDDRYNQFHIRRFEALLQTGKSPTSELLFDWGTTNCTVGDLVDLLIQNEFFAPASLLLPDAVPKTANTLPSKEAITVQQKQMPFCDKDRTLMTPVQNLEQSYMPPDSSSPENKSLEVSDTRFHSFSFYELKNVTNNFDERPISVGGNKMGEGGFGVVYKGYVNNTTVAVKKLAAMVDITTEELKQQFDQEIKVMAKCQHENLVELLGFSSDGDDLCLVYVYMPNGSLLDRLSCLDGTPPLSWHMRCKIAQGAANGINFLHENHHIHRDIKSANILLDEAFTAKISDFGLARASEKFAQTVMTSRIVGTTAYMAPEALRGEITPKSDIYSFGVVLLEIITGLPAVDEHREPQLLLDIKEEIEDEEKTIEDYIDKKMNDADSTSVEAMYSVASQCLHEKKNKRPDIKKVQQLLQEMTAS
Method in brief: as §1

Structure (SMILES) | IC50 (MOLM14 D835Y cells; MOLM-14, Table 22, 48 h) [nM] | IC50 (IRAK1; Table 17) [nM] | IC50 (IRAK4; Table 17) [nM] | IC50 (MOLM14 D835Y cells; MOLM-14, Table 16, 48 h) [nM] | IC50 (IRAK1; Table 11) [nM] | IC50 (IRAK4; Table 11) [nM]
COc1cn2ncc(-c3nc(N[C@H]4CNC[C@@H]4F)ncc3F)c2nc1C(C)(C)O [Compound 5a, 2-(3-(5-fluoro-2-(((3S,4S)-4-fluoropyrrolidin-3-yl)amino)pyrimidin-4-yl)-6-methoxypyrazolo[1,5-a]pyrimidin-5-yl)propan-2-ol] | 25 | 6 | 0.7 | – | – | –
COc1cn2ncc(-c3cccc(N[C@@H]4CCCNC4)n3)c2nc1C1CC1 [Compound 20, (R)-6-(5-cyclopropyl-6-methoxypyrazolo[1,5-a]pyrimidin-3-yl)-N-(piperidin-3-yl)pyridin-2-amine] | – | – | – | 41 | 146 | 5
COc1cn2ncc(-c3ccnc(N[C@H]4CNC[C@@H]4F)n3)c2nc1C1CC1 [Compound 8a, 4-(5-cyclopropyl-6-methoxypyrazolo[1,5-a]pyrimidin-3-yl)-N-((3S,4S)-4-fluoropyrrolidin-3-yl)pyrimidin-2-amine] | 26 | 9 | 1 | – | – | –
COc1cn2ncc(-c3nc(N[C@H]4CNCC[C@@H]4F)ccc3F)c2nc1C1CC1 [Compound 3, 6-(5-cyclopropyl-6-methoxypyrazolo[1,5-a]pyrimidin-3-yl)-5-fluoro-N-((3S,4S)-4-fluoropiperidin-3-yl)pyridin-2-amine] | – | – | – | 2 | 0.8 | < 0.5
COc1cn2ncc(-c3cccc(N[C@H]4CNC[C@@H]4F)n3)c2nc1C1CC1 [Compound 19, 6-(5-cyclopropyl-6-methoxypyrazolo[1,5-a]pyrimidin-3-yl)-N-((3S,4S)-4-fluoropyrrolidin-3-yl)pyridin-2-amine] | – | – | – | 58 | 45 | 2
COc1cn2ncc(-c3ccnc(N[C@H]4CNCC[C@@H]4F)n3)c2nc1C1CC1 [Compound 7a, 4-(5-cyclopropyl-6-methoxypyrazolo[1,5-a]pyrimidin-3-yl)-N-((3S,4S)-4-fluoropiperidin-3-yl)pyrimidin-2-amine] | 7 | 8 | 1 | – | – | –
COc1cn2ncc(-c3nc(N[C@H]4CNCC[C@@H]4F)c(F)cc3F)c2nc1C(C)(C)O [Compound 13, 2-(3-(3,5-difluoro-6-(((3S,4S)-4-fluoropiperidin-3-yl)amino)pyridin-2-yl)-6-methoxypyrazolo[1,5-a]pyrimidin-5-yl)propan-2-ol] | – | – | – | 14 | 7 | 2
COc1cn2ncc(-c3ccnc(N[C@H]4CNCC[C@@H]4F)n3)c2nc1C(C)(C)O [Compound 3a, 2-(3-(2-(((3S,4S)-4-fluoropiperidin-3-yl)amino)pyrimidin-4-yl)-6-methoxypyrazolo[1,5-a]pyrimidin-5-yl)propan-2-ol] | 86 | 207 | 15 | – | – | –
COc1cn2ncc(-c3nc(N[C@H]4CNCC[C@@H]4F)ncc3F)c2nc1C1CC1 [Compound 15a, 4-(5-cyclopropyl-6-methoxypyrazolo[1,5-a]pyrimidin-3-yl)-5-fluoro-N-((3S,4S)-4-fluoropiperidin-3-yl)pyrimidin-2-amine] | 2 | < 0.5 | 0.7 | – | – | –
COc1cn2ncc(-c3cccc(N[C@H]4CNCC[C@@H]4F)n3)c2nc1C1CC1 [Compound 21, 6-(5-cyclopropyl-6-methoxypyrazolo[1,5-a]pyrimidin-3-yl)-N-((3S,4S)-4-fluoropiperidin-3-yl)pyridin-2-amine] | – | – | – | 46 | 38 | 2
